# Laboratory results: US12503452B2 (Curza Global, LLC, priority 2019, dated 2025)
# Counter-ions that a name gives are not always drawn. Like-named read-outs stand apart in the source and are kept apart here.
# Assays:
# [1] = system: E. coli S30 extract (bacterial protein synthesis); test: E. coli S30 extract coupled transcription-translation luciferase assay (inhibition of bacterial protein synthesis); format: biochemical; settings: read-out: S30 IC50 (μM/% inhib.)
# Procedure, shortened: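 Luminescent read-out of luciferase made from pBESTluc DNA by E. coli S30 extract after 1 h at 37 °C with compound in an 8-point 2-fold series. Background came from no-DNA reactions. Percent inhibition was calculated against water-only controls.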
# S. aureus (Sa) = test: Broth microdilution minimum inhibitory concentration (MIC); format: cell-based; settings: Staphylococcus aureus, read-out: Sa + bicarb MIC
# Experimental: (§1) A certified BSL-2 laboratory was used for testing. Compounds were evaluated using the broth microdilution minimum inhibitory concentration (MIC) and minimum bactericidal concentration (MBC) assays defined by Clinical and Laboratory Standards Institute (CLSI) in the M26-A guideline against S. aureus (Sa), E. coli (Ec), K. pneumoniae (Kp), A. baumannii (Ab), E. faecalis (Ef) and P. aeruginosa (Pa).
# (§2) MICs were determined using the Clinical Laboratory and Standards Institute (CLSI) Broth Microdilution Method with slight modification. Clinical and Laboratory Standards Institute (2012). “Methods for dilution antimicrobial susceptibility tests for bacteria that grow aerobically; approved standard, 9th ed. M07-A9. Clinical and Laboratory Standards Institute, Wayne, PA” Serial two-fold dilutions of compounds are prepared in sterile clear round-bottom 96-well plates.
# (§3) To prepare microdilution trays, two-fold dilutions of antimicrobial agent are prepared in growth medium: Cation-Adjusted Mueller-Hinton Broth (CAMHB), or CAMHB supplemented with sodium bicarbonate (6.25 or 25 mM final concentration prepared from a 1.0M stock solution) or CAMHB supplemented with heat inactivated human serum (Fisher Cat. #BP2657100) 0-50% by adding 200 μL of the highest concentration to be tested (64 μg/mL, for example) in row A, mixing and transferring 100 μL from row A to 100 μL growth medium in row B, then repeating the mixing and transferring through row H of the 96-well plate, discarding the excess 100 μL remaining. This slight modification to the CLSI protocol enables evaluation of MICs for 3 compounds per plate in triplicate, albeit with only 8 compound dilutions (CLSI protocol enables 2 compounds in triplicate with 10 dilutions). Bacterial suspensions are added to a final concentration of 5×10^4 CFU/well by adding 5 μL of a 1:10 dilution of a 0.5 McFarland suspension (1×10^8 CFU/mL) for each bacterium evaluated. Bacterial suspensions were prepared using the growth method described by CLSI. Well-isolated colonies (3-5 from an agar plate) were selected using a sterile loop and used to inoculate a tube containing 4 mL of CAMHB. The cultures are incubated at 35±2° C. until it achieves or exceeds the turbidity of the 0.5 McFarland standard, determined by measuring A600nm (usually two to six hours). When growth exceeds a 0.5 McFarland standard, the turbidity is adjusted with broth to be equivalent to a 0.5 McFarland standard.
# P. aeruginosa (Pa) = test: as above; format: cell-based; settings: Pseudomonas aeruginosa, read-out: Pa MIC + bicarb
# Experimental: as §1, §2, §3
# E. faecalis (Ef) = test: as above; format: cell-based; settings: Enterococcus faecalis, read-out: Ef + bicarb MIC
# Experimental: as §1, §2, §3
# E. coli (Ec) = test: as above; format: cell-based; settings: Escherichia coli, read-out: E. coli + bicarb MIC
# Experimental: as §1, §2, §3
# A. baumannii (Ab) = test: as above; format: cell-based; settings: Acinetobacter baumannii, read-out: Ab + bicarb MIC
# Experimental: as §1, §2, §3
# [2] = biological target: Rabbit Reticulocyte Lysate (eukaryotic protein synthesis); test: Rabbit reticulocyte lysate luciferase assay (inhibition of eukaryotic protein synthesis); format: biochemical; settings: read-out: Rabbit reticulocyte IC50 (μM/% inhib.)
# Procedure, shortened: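 Compounds were tested in 8-point 2-fold dilution series for blocking luciferase synthesis in nuclease-treated rabbit reticulocyte lysate (30° C., 90 minutes). Luminescence read-out, corrected by no-RNA background, was expressed as % inhibition against water-only reactions.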
# [3] = class by IC50 or % inhibition @ 1 μM
# [4] = S. aureus, growth medium supplemented with sodium bicarbonate
# [5] = P. aeruginosa, growth medium supplemented with sodium bicarbonate
# [6] = E. faecalis, growth medium supplemented with sodium bicarbonate
# [7] = E. coli, growth medium supplemented with sodium bicarbonate
# [8] = A. baumannii, growth medium supplemented with sodium bicarbonate
# [9] = E. faecalis, growth medium with sodium bicarbonate
# [10] = A. baumannii, growth medium with sodium bicarbonate
# [11] = P. aeruginosa, growth medium with sodium bicarbonate
# [12] = E. coli, growth medium with sodium bicarbonate
SMILES,"IC50 [1, 3] [µM]","IC50 [2, 3] [µM]",MIC (P. aeruginosa (Pa); [5]) [µg/mL],MIC (E. faecalis (Ef); [6]) [µg/mL],MIC (E. coli (Ec); [7]) [µg/mL],MIC (A. baumannii (Ab); [8]) [µg/mL],further results
"CC(C)(N)C(=O)N1CCN(C(=O)Nc2ccn(-c3ccc(CNC4CCC[C@@H](N)C4)cc3)c(=O)n2)CC1 (mixture of isomers) [Compound 320, hydrochloride salt]",< 0.5,> 1,–,–,–,–,MIC (S. aureus (Sa)): 8 to 32 µg/mL; MIC (P. aeruginosa (Pa)): > 32 µg/mL; MIC (E. faecalis (Ef)): > 32 µg/mL; MIC (E. coli (Ec)): < 8 µg/mL; MIC (A. baumannii (Ab)): > 32 µg/mL
CC(Cc1ccc(-n2ccc(NC(=O)N3CCN(C(=O)C(C)(C)N)CC3)nc2=O)cc1)NC[C@@H]1CCC[C@@H](N)C1 (mixture of isomers) [Compound 155],> 1,> 1,> 32,> 32,< 8,> 32,MIC (S. aureus (Sa); [4]): 8 to 32 µg/mL
"C[C@H]1CN(Cc2ccc(-n3ccc(NC(=O)N4CCN(C(=O)C(C)(C)N)CC4)nc3=O)cc2)CC[C@H]1N (stereo in doubt) [Compound 297, hydrochloride salt]",0.5 to 1,> 1,–,–,–,–,MIC (S. aureus (Sa)): < 8 µg/mL; MIC (P. aeruginosa (Pa)): > 32 µg/mL; MIC (E. faecalis (Ef)): 8 to 32 µg/mL; MIC (E. coli (Ec)): < 8 µg/mL
C[C@](N)(CO)C(=O)N1CCN(C(=O)Nc2ccn(-c3ccc(CCN4CCC[C@@H](N)C4)cc3)c(=O)n2)CC1 [Compound 12],0.5 to 1,> 1,> 32,–,> 32,> 32,–
CC(N)C1CCCN(CCc2ccc(-n3ccc(NC(=O)N4CCN(C(=O)C(C)(C)N)CC4)nc3=O)cc2)C1 (stereo not drawn) [Compound 22],< 0.5,> 1,> 32,–,< 8,–,MIC (S. aureus (Sa); [4]): < 8 µg/mL
C[C@@H]1CN(CCc2ccc(-n3ccc(NC(=O)N4CCN(C(=O)C(C)(C)N)CC4)nc3=O)cc2)CC[C@H]1N [Compound 41],< 0.5,> 1,–,8 to 32,–,> 32,–
CC(N)[C@H]1CCN(CCc2ccc(-n3ccc(NC(=O)N4CCN(C(=O)C(C)(C)N)CC4)nc3=O)cc2)C1 (stereo partly drawn) [Compound 42],< 0.5,> 1,8 to 32,8 to 32,< 8,> 32,–
CC(N)[C@@H]1CCN(CCc2ccc(-n3ccc(NC(=O)N4CCN(C(=O)C(C)(C)N)CC4)nc3=O)cc2)C1 (stereo partly drawn) [Compound 43],< 0.5,> 1,8 to 32,8 to 32,< 8,> 32,–
CC(N)[C@@H]1CCN(Cc2ccc(-n3ccc(NC(=O)N4CCN(C(=O)C(C)(C)N)CC4)nc3=O)cc2)C1 (stereo partly drawn) [Compound 44],< 0.5,> 1,–,< 8,–,> 32,–
CC(N)[C@H]1CCN(Cc2ccc(-n3ccc(NC(=O)N4CCN(C(=O)C(C)(C)N)CC4)nc3=O)cc2)C1 (stereo partly drawn) [Compound 45],< 0.5,> 1,–,< 8,–,> 32,–
NC1CCN(Cc2ccc(-n3ccc(NC(=O)N4CC(N)C4)nc3=O)cc2)CC1 [Compound 49],> 1,> 1,> 32,–,> 32,> 32,–
CC(C)(N)C(=O)N1CCN(C(=O)Nc2ccn(-c3ccc(CN4CCC(N)CC4)cc3)c(=O)n2)C(c2ccccc2)C1 (stereo not drawn) [Compound 59],> 1,> 1,> 32,–,> 32,> 32,–
CC(C)(N)C(=O)N1C2COCC1CN(C(=O)Nc1ccn(-c3ccc(CN4CCC(N)CC4)cc3)c(=O)n1)C2 [Compound 68],0.5 to 1,> 1,> 32,–,< 8,–,MIC (S. aureus (Sa); [4]): > 32 µg/mL
C[C@@H]1CN(C(=O)Nc2ccn(-c3ccc(CN4CCC(N)CC4)cc3)c(=O)n2)[C@@H](C)CN1C(=O)C(C)(C)N [Compound 74],–,> 1,> 32,–,> 32,> 32,–
CC(C)(N)C(=O)N1CC2COCC(C1)N2C(=O)Nc1ccn(-c2ccc(CN3CCC(N)CC3)cc2)c(=O)n1 [Compound 85],> 1,> 1,> 32,–,< 8,–,MIC (S. aureus (Sa); [4]): > 32 µg/mL
C[C@@H]1CN(C(=O)[C@@](C)(N)CO)CCN1C(=O)Nc1ccn(-c2ccc(CN3CCC(N)CC3)cc2)c(=O)n1 [Compound 89],< 0.5,> 1,–,> 32,–,> 32,–
Cc1cc(-n2ccc(NC(=O)N3CCN(C(=O)C(C)(C)N)CC3)nc2=O)ccc1CN1CCC(N)CC1 [Compound 91],< 0.5,> 1,> 32,< 8,< 8,> 32,–
CNC(C)(C)C(=O)N1CCN(C(=O)Nc2ccn(-c3ccc(CN4CCC(N)CC4)cc3)c(=O)n2)CC1 [Compound 96],> 1,> 1,> 32,–,< 8,–,MIC (S. aureus (Sa); [4]): < 8 µg/mL
C[C@](N)(CO)C(=O)N1CCN(C(=O)Nc2ccn(-c3ccc(CN4CCC(N)CC4)c(Cl)c3)c(=O)n2)CC1 [Compound 98],< 0.5,> 1,> 32,–,< 8,–,MIC (S. aureus (Sa); [4]): < 8 µg/mL
CC(N)C1CCCN(Cc2ccc(-n3ccc(NC(=O)N4CCN(C(=O)C(C)(C)N)CC4)nc3=O)cc2)C1 (stereo not drawn) [Compound 109],< 0.5,> 1,> 32,–,< 8,–,MIC (S. aureus (Sa); [4]): < 8 µg/mL
CC(C)(N)C(=O)N1CCN(C(=O)Nc2ccn(-c3ccc(CN4CC(CN)C4)cc3)c(=O)n2)CC1 [Compound 133],< 0.5,> 1,–,> 32,–,> 32,–
CC(C)(N)C(=O)N1CCN(C(=O)Nc2ccn(-c3ccc(CN4CC(CCN)C4)cc3)c(=O)n2)CC1 [Compound 134],< 0.5,> 1,> 32,8 to 32,< 8,> 32,–
CC(N)C1CCN(CCc2ccc(-n3ccc(NC(=O)N4CCN(C(=O)C(C)(C)N)CC4)nc3=O)cc2)CC1 (stereo not drawn) [Compound 168],< 0.5,> 1,–,–,–,–,MIC (E. faecalis (Ef); [9]): 8 to 32 µg/mL; MIC (A. baumannii (Ab); [10]): > 32 µg/mL
CC1CN(Cc2ccc(-n3ccc(NC(=O)N4CCN(C(=O)[C@@](C)(N)CO)CC4)nc3=O)cc2)CCC1N (stereo partly drawn) [Compound 223],0.5 to 1,> 1,–,–,–,–,MIC (P. aeruginosa (Pa); [11]): > 32 µg/mL; MIC (E. faecalis (Ef); [9]): < 8 µg/mL; MIC (E. coli (Ec); [12]): < 8 µg/mL; MIC (A. baumannii (Ab); [10]): > 32 µg/mL
"C[C@](N)(CO)C(=O)N1CCN(C(=O)Nc2ccn(-c3ccc(CCN4CCC(NC(=N)N)CC4)cc3)c(=O)n2)CC1 [Compound 349, hydrochloride salt]",–,–,–,–,–,–,IC50 ([1]; % inhibition @ 1 μM): < 0.5 µM; MIC (S. aureus (Sa)): 8 to 32 µg/mL; MIC (E. coli (Ec)): < 8 µg/mL; IC50 ([2]; % inhibition @ 1 μM): 0.5 to 1 µM
CC(C)(N)C(=O)N1CCN(C(=O)Nc2ccn(-c3ccc(CNCC4(O)CNC4)cc3)c(=O)n2)CC1 [Compound 376],–,–,–,–,–,–,IC50 ([1]; % inhibition @ 1 μM): < 0.5 µM; MIC (P. aeruginosa (Pa); [11]): > 32 µg/mL; MIC (E. coli (Ec); [12]): < 8 µg/mL; MIC (A. baumannii (Ab); [10]): > 32 µg/mL; IC50 ([2]; % inhibition @ 1 μM): > 1 µM
